# Data as given in patent US8945584B2, “Cell culture system of a hepatitis C genotype 3a and 2a chimera” (Hvidovre Hospital, priority 2007, dated 2015).
# Legend:
# Huh7.5 cells [1] = experiment: Determination of 50% tissue culture infectious doses (TCID50) of culture supernatants; type: cell-based, human; settings: for infectivity titer (TCID50): day 9 post-transfection, one of 6 replicate wells infected with undiluted supernatant
# Description: To determine the efficiency of the developed system, HCV RNA titers are determined in IU/ml (international units/ml) with Taq-Man Real-Time-PCR and infectious titers are determined with a tissue culture infectious dose-50 method. This titer indicates the dilution of the examined viral stock, at which 50% of the replicate cell cultures used in the essay become infected and is given in TCID50/ml.
# In general, the TCID50 of culture supernatants was determined as previously described. Huh7.5 cells were washed with PBS, trypsinized and plated at 6×10^3 cells per well of a poly-D-lysine coated 96 well plate (Nunc). After ˜24 hrs cells were incubated with 10-fold serial dilutions of viral stock cell culture supernatant in complete growth medium. For each dilution, six replicate wells were inoculated. After incubation for 48 hrs the plate was subjected to immuno staining for NS5A as described above. Wells were evaluated by light microscopy and scored positive if at least one positive cell could be detected. TCID50 values were calculated as described by Reed and Muench.
# For determination of TCID50 Huh7.5 cells were plated at 6×10^3 cells/well on a poly-D-Lysine coated 96 well plate and infected with serial dilutions of virus containing cell culture supernatant in complete growth medium in replicates of 6 wells per dilution. After incubation for 48 hours cells were stained for NS5A expression. A well was counted positive, if at least one infected cell was visible. Calculation of TCID50 was done as previously described by Reed et al. † Average of 3 independent determinations, * average of 2 independent determinations, +1 determination. HCV RNA titers were determined with an TaqMan assay. Supernatants from transfection experiments were not tested in TaqMan due to DNA/RNA input from the transfection procedure. Specific infectivity was calculated as infectious units (TCID50/ml) per genome number (IU/ml).
# Huh7.5 cells [2] = experiment: Percentage of infected cells by immuno-staining for HCV NS5A; type: cell-based, human
# Description: Analyses were carried out as previously described with modifications. Huh7.5 cells were washed with PBS, trypsinized and plated on chamber slides (Nunc). After ˜24 hours cells were washed twice with PBS and fixed 5 min with ice-cold methanol. After washing 2× with PBS and 1× with PBS/Tween (0.1% Tween-20), slides were blocked with PBS containing bovine serum albumin (BSA, 1%) and skim milk (0.2%) for 1 hour at room temperature. Endogenous peroxidase staining was reduced by adding 3% H202 in PBS for 5 min. After washing as above the 1st antibody (anti-NS5A, 9E10, a generous gift from Charles M. Rice, used at 1:200 in PBS/Tween) was added and incubated at 4° C. overnight. After washing slides were incubated with secondary antibody (ECLTM Anti-mouse IgG, horseradish peroxidase linked whole antibody, Amersham Biosciences, used at 1:300 in PBS/Tween) for 30 min at room temperature. After washing horseradish peroxidase substrate (DAB substrate kit, DAKO) was added. After incubation for 30 min, slides were washed with H2O, mounted with Fluoromount-G (Southern Biotech) and cover slipped. Percentage of infected cells was evaluated by light microscopy assigning values of 0% (no cells infected), 1%, 5%, 10-90% (in steps of 10%), 95% and 100% (all cells infected).
# Huh7.5 cells [3] = experiment: Real-time PCR (TaqMan) assay for HCV RNA titers in cell culture supernatants; type: cell-based, human; settings: kinetic experiment, inoculated with ~10^4 TCID50, day 6 and 9
# Description: RNA was purified from 200 μl of heat inactivated (56° C. for 30 min) cell culture supernatant and eluted in a final volume of 50 μl using the Total Nucleic Acid Isolation Kit (Roche) in combination with the Total NA Variable Elution Volume protocol on a MagNA Pure LC Instrument (Roche). As an internal control, Phocine Distemper Virus (PDV) was added to the lysis buffer in a concentration titrated to yield a Ct of ˜32 upon real-time PCR analysis. In parallel to RNA purified from cell culture supernatants, a quantitative HCV standard panel covering RNA concentrations of 0 to 5×10^6 IU/ml in one log increments (OptiQuant HCV Panel, AcroMetrix) was analysed. […] For HCV, primers and a FAM-labelled MGB-probe were directed against the 5′ UTR and were previously shown to perform equivalently against a panel of the six major HCV genotypes in a different TaqMan assay (Engle R E, Bukh J, and Purcell R H, 2007) For PDV, a ready-to-use primer/probe mix was used (Dr. H. G. M. Niesters, Department of Virology, Erasmus Medical Centre, Rotterdam, The Netherlands). […] HCV RNA titers (IU/ml) were calculated using a standard curve created from the known concentrations of the standard panel and their corresponding Ct values (cycle number, at which the normalised fluorescence signal rises above a fixed threshold of 0.2 […] to the amount of template in the PCR reaction). […]
# S52/JFH1(T2718G; A4550C) = experiment: Interferon alfa 2b treatment of infected Huh7.5 cultures, % NS5A positive cells; type: cell-based, hepatitis C virus
# Description: (§1) FIG. 10. S52/JFH1 viruses are sensitive to treatment with Interferon alfa. […] Huh7.5 cells were infected with 10^4 TCID50 (MOI 0,003) of the indicated viruses. On day 5 after infection, cultures were evaluated for % of NS5A positive cells (first datapoint) and 4×10^5 cells of the respective culture were plated per well of a 6-well dish. After 24 hrs incubation, treatment with cell culture medium containing 500 IU/mL interferon alfa 2b was started. Interferon containing medium was replaced at the time points indicated by arrows. Cultures were evaluated for the % of NS5A positive cells at the indicated timepoints.
# (§2) As proof of principle of using the present invention in testing of anti-hepatitis C virus substances, the effects of interferon alfa, currently used in combination therapy for HCV, were tested on the infected cell culture. […] Thus we treated Huh7.5 cell cultures infected with J6/JFH1, S52/JFH1(T2718G; A4550C) and S52/JFH1(A4550C) with cell culture medium containing 5001 U/mL interferon alfa 2b (FIG. 10). After initiation of treatment, we observed for all cultures a fast decline of HCV antigen positive cells. Thus, for J6/JFH1 and S52/JFH1(T2718G; A4550C) the percentage of NS5A positive cells was 90 and 60 the day prior to treatment, whereas only 20% and 10% NS5A positive cells were detected in the respective cultures on day 3 of treatment ([…]).
# (§3) HCV cell culture systems could be important tools for testing of antiviral therapeutics. […] Thus Huh7.5 cell cultures infected with J6/JFH1, S52/JFH1(T2718G; A4550C) and S52/JFH1(A4550C) were treated with cell culture medium containing 5001 U/mL interferon alfa 2b. After initiation of treatment, a fast decline of HCV antigen positive cells was shown for all cultures. Thus, for J6/JFH1 and S52/JFH1(T2718G; A4550C) the percentage of NS5A positive cells was 90 and 60 the day prior to treatment, whereas only 20% and 10% NS5A positive cells were detected in the respective cultures on day 3 of treatment (FIG. 10).
# S52/JFH1(A4550C) = experiment: as above; type: cell-based, hepatitis C virus; settings: 5001 U/mL interferon alfa 2b in medium (FIG. 10 legend: 500 IU/mL)
# Description: as §1, §2, §3
# J6/JFH1 = experiment: as above; type: cell-based, hepatitis C virus
# Description: as §1, §2, §3
# [4] = 5001 U/mL interferon alfa 2b in medium (FIG. 10 legend: 500 IU/mL)
# [5] = day 6, cultures not treated for 48 hrs
substance,measurement,setting,value
"S52/JFH1: intergenotypic 3a/2a recombinant HCV: Core-NS2 of strain S52, 5' UTR, NS3-NS5B and 3' UTR of JFH1",infectivity titer (TCID50),Huh7.5 cells [1],undeterminable
same,infectivity titer (TCID50),Huh7.5 cells [1]; listed as pS52/JFH1,non-determinable
same,Peak infectivity titers after transfection,"Huh7.5 cells [1]; days 3, 7 and 9 post-transfection (FIG. 5B)",significantly lower titers
same,% infected cells,"Huh7.5 cells [2]; First experiment, 2nd viral passage (used for kinetic experiment), day 11",95%
same,% infected cells,"Huh7.5 cells [2]; First experiment, 3rd viral passage (inoculated with 10^2.5 TCID50), day 12",95%
same,% infected cells,"Huh7.5 cells [2]; First experiment, 3rd viral passage (inoculated with 10^4 TCID50), day 3",90%
same,% infected cells,"Huh7.5 cells [2]; First experiment, transfection, experimental day 11",40%
same,% infected cells,"Huh7.5 cells [2]; Second experiment, 1st viral passage, experimental day 8",95%
same,% infected cells,"Huh7.5 cells [2]; Second experiment, transfection, experimental day 33",70%
same,NS5A antigen positive cells,Huh7.5 cells [2]; day 1 after transfection with RNA transcripts,~10%
same,time until viruses spread to the entire culture,Huh7.5 cells [2]; naive Huh7.5 cells infected with approximately 10^2.5 TCID50,12 days
same,time until viruses spread to the entire culture,Huh7.5 cells [2]; naive Huh7.5 cells infected with approximately 10^3 TCID50,9 days
same,time until viruses spread to the entire culture,Huh7.5 cells [2]; naive Huh7.5 cells infected with approximately 10^4 TCID50,3 days
same,peak HCV RNA titers,Huh7.5 cells [3],~10^7 copies/ml
interferon alfa 2b,HCV antigen positive cells after initiation of treatment,S52/JFH1(T2718G; A4550C); [4],fast decline
same,NS5A positive cells,"S52/JFH1(T2718G; A4550C); day 3 of treatment, 60 the day prior to treatment",10%
same,NS5A positive cells,S52/JFH1(T2718G; A4550C); [5],40%
same,HCV antigen positive cells after initiation of treatment,S52/JFH1(A4550C),fast decline
same,HCV antigen positive cells after initiation of treatment,J6/JFH1; [4],fast decline
same,NS5A positive cells,"J6/JFH1; day 3 of treatment, 90 the day prior to treatment",20%
same,NS5A positive cells,J6/JFH1; [5],40%
